Laboratory results taken from the NIST ThermoML archive (doi:10.1016/j.jct.2016.03.026).

Experiment: xn = mol fraction of the nth substance listed
Conditions: Fluid (supercritical or subcritical phases), x1 = 0.97; for speed of sound: 304.19 K, Frequency=5 MHz, Pulse-echo method; for mass density: 304.21 K, Vibrating tube method

O=C=O [carbon dioxide] + CO
Conditions	mass density [kg/m3]	speed of sound [m/s]
7850 kPa	713.81	–
7875 kPa	715.24	–
7900 kPa	716.69	–
7925 kPa	717.99	–
7950 kPa	719.19	–
7975 kPa	720.37	–
8000 kPa	721.57	–
8025 kPa	722.66	–
8050 kPa	723.78	–
8075 kPa	724.91	–
8100 kPa	725.92	–
8125 kPa	726.93	–
8150 kPa	728.01	–
8175 kPa	729.1	–
8200 kPa	730.14	–
8225 kPa	731.15	–
8250 kPa	732.12	–
8275 kPa	733.11	–
8300 kPa	734.02	–
8325 kPa	735.01	–
8350 kPa	735.91	–
8375 kPa	736.81	–
8400 kPa	737.68	–
8425 kPa	738.51	–
8450 kPa	739.43	–
8475 kPa	740.29	–
8500 kPa	741.14	–
8525 kPa	741.99	–
8550 kPa	742.83	–
8575 kPa	743.65	–
8600 kPa	744.47	–
8625 kPa	745.32	–
8650 kPa	746.1	–
8675 kPa	746.89	–
8700 kPa	747.67	–
8725 kPa	748.5	–
8750 kPa	749.21	–
8775 kPa	749.97	–
8800 kPa	750.73	–
8825 kPa	751.52	–
8850 kPa	752.22	–
8875 kPa	752.97	–
8900 kPa	753.68	–
8925 kPa	754.39	–
8950 kPa	755.11	–
8975 kPa	755.82	–
9000 kPa	756.48	–
9025 kPa	757.25	–
9050 kPa	757.93	–
9075 kPa	758.64	–
9100 kPa	759.25	–
9125 kPa	759.92	–
9150 kPa	760.55	–
9175 kPa	761.24	–
9200 kPa	761.88	–
9225 kPa	762.52	–
9250 kPa	763.15	–
9275 kPa	763.76	–
9300 kPa	764.36	–
9325 kPa	764.98	–
9350 kPa	765.65	–
9375 kPa	766.27	–
9400 kPa	766.88	–
9425 kPa	767.44	–
9450 kPa	768.06	–
9475 kPa	768.6	–
9500 kPa	769.12	–
9525 kPa	769.73	–
9550 kPa	770.22	–
9575 kPa	770.76	–
9600 kPa	771.35	–
9625 kPa	771.96	–
9650 kPa	772.5	–
9675 kPa	773.03	–
9700 kPa	773.62	–
9725 kPa	774.15	–
9750 kPa	774.65	–
9775 kPa	775.2	–
9800 kPa	775.72	–
9825 kPa	776.25	–
9850 kPa	776.81	–
9875 kPa	777.3	–
9900 kPa	777.81	–
9925 kPa	778.36	–
9950 kPa	778.83	–
9975 kPa	779.32	–
10000 kPa	779.86	–
10025 kPa	780.3	–
10050 kPa	780.81	–
10075 kPa	781.33	–
10100 kPa	781.81	–
10125 kPa	782.29	–
10150 kPa	782.79	–
10175 kPa	783.3	–
10200 kPa	783.77	–
10225 kPa	784.17	–
10250 kPa	784.67	–
10275 kPa	785.18	–
10300 kPa	785.65	–
10325 kPa	786.13	–
10350 kPa	786.55	–
10375 kPa	787.08	–
10400 kPa	787.51	–
10425 kPa	787.92	–
10450 kPa	788.38	–
10475 kPa	788.87	–
10500 kPa	789.3	–
10525 kPa	789.73	–
10550 kPa	790.18	–
10575 kPa	790.6	–
10600 kPa	791.05	–
65100 kPa	–	894.9
70230 kPa	–	919.7
75540 kPa	–	944.1
79980 kPa	–	963.6
90070 kPa	–	1005.1
100040 kPa	–	1043.2
109900 kPa	–	1078.3
119960 kPa	–	1112.5
140090 kPa	–	1173.8
159770 kPa	–	1228.8
180450 kPa	–	1282
